According to publication PMC8413292, “Small-molecule polymerase inhibitor protects non-human primates from measles and reduces shedding” (Nature Communications, 2021):
Values joined by “and” are separate entries in the source; they are usually repeats but may differ in a detail not shown here. Equal entries are not always repeated.

Key:
[1] = test system: MV/FrankfurtMain.DEU/17.11 (genotype D8); test: Rectal temperature of MeV-infected squirrel monkeys; format: in vivo, squirrel monkeys (Saimiri sciureus); details: for Temperature: individual animals
Experimental: All animal experiments were carried out in compliance with the regulations of German animal protection laws and authorized by the Regierungspräsidium Darmstadt, Germany (Dezernat V54 – Veterinärwesen und Verbraucherschutz, Hilpertstrasse 31, 64295 Darmstadt). Adult male and female squirrel monkeys (Saimiri sciureus) were obtained from BioPRIM, 31450 Baziege, or CNRS 0846 Primatologie, 13790 Rousset, France. Each experimental group was housed in a separate room, and animals of the same sex were caged together within the respective groups. For the single-dose pharmacokinetic experiment, animals were anesthetized, and the drug was given through a stomach tube at a concentration of 50 mg/kg bodyweight. Blood samples were collected after 15, 30, and 60 min, and 2, 3, 6, and 24 h. For efficacy assessment, groups of 6 animals were left untreated or treated with 50 mg/kg of ERDRP-0519 twice daily for two weeks, starting either 12 h before or 3 or 7 days after intranasal infection with 10^6 TCID50 of MV/FrankfurtMain.DEU/17.11. Clinical signs, rectal temperature, and weight were recorded daily, and throat swabs and blood samples were collected before infection and twice weekly thereafter. On day 21 post-infection, the animals were euthanized, necropsied, and samples were collected for histological analysis.

[2] = Necropsy and histology (H&E) for pharmacotoxicity; format: in vivo
Description: After euthanasia, each animal was examined for gross pathological changes, and samples were collected for histopathological examination. After fixation, all tissue samples were embedded in paraffin. Histology slices were mounted and stained using standard H&E staining techniques.

[3] = test system: MeV/NewJersey.USA/94/1 (genotype D6); test: PK and PD recapitulation ex vivo in MeV-infected human PBMCs, progeny virus titer (TCID50); format: cell-based, Measles virus in human PBMCs; details: for Virus titers: hPBMCs, individual repeats; for Mean, Transform of Virus Titer: n = 4
Experimental: Human peripheral blood mononuclear cells (hPBMCs) were infected (MOI = 0.1 TCID50 units per cell) in a 24-well plate format with MeV/NewJersey.USA/94/1 (genotype D6) in the presence of ERDRP-0519 or DMSO (0.1%). […] Cells were collected 48 h after infection and virus was subsequently harvested after two freeze thaw cycles. Released virus titers were then determined by limited dilution method (TCID50) on Vero/hSLAM cells. Four biological repeats were used for each ex vivo PK recapitulation and three biological repeats were used for DMSO-treated hPBMCs.
PK and PD recapitulation in human blood mononuclear cells
To test whether viral replication in […]
circumstances, we performed an in vitro recapitulation experiment. For this, we infected human PBMCs in a 24-well plate format with MeV/NewJersey.USA/94/1 (genotype D6) at a multiplicity of infection of 0.1 TCID 50 units per cell. To mimic the ERDRP-0519 serum concentration profile in vitro , we adjusted the drug concentrations in our PBMC cultures multiple times during the incubation period as shown by the colored areas in Fig. 1c (recapitulating a once per day treatment regimen, q.d.) and Fig. 1d (recapitulating a twice daily treatment regimen, b.i.d.) and summarized in Supplementary Table 3. The concentration changes were applied for a total of 48 h to the infected PBMC cultures (a total of two cycles of the q.d. regimen and four cycles of the b.i.d. regimen, assuming no drug accumulation during repeated treatment). As controls, infected PBMCs were incubated in the presence of vehicle only (0.1 % DMSO) or with a constant concentration of 1.5 µM of ERDRP-0519 over the whole period of 48 h post infection. Cells were collected 48 hours after infection and virus was subsequently harvested after two freeze thaw cycles. Released virus titers were then determined by limited dilution method (TCID 50) on Vero/hSLAM cells (Fig. 1e). Four biological repeats were used for each ex vivo PK recapitulation and three biological repeats were used for DMSO-treated hPBMCs.

[4] = test system: canine distemper virus (CDV); details: lethal CDV-ferret model; cited from earlier work

Cn1nc(C(F)(F)F)cc1C(=O)Nc1ccc(S(=O)(=O)N2CCCC[C@H]2CCN2CCOCC2)cc1 [ERDRP-0519]
Temperature, Mean Diff, untreated vs. prophylactic ([1]; Row 1 (day 0)): -1.35 | Temperature, Mean Diff, untreated vs. therapeutic (d3) ([1]; Row 1 (day 0)): -0.9667 | Temperature, Mean Diff, untreated vs. therapeutic (d7) ([1]; Row 1 (day 0)): -0.7167 | Temperature, Mean Diff, untreated vs. prophylactic ([1]; Row 2 (day 3)): 0.5833 | Temperature, Mean Diff, untreated vs. therapeutic (d3) ([1]; Row 2 (day 3)): -0.05 | Temperature, Mean Diff, untreated vs. therapeutic (d7) ([1]; Row 2 (day 3)): -0.03333 | Temperature, Mean Diff, untreated vs. prophylactic ([1]; Row 3 (day 7)): 1.2 | Temperature, Mean Diff, untreated vs. therapeutic (d3) ([1]; Row 3 (day 7)): 0.5167 | Temperature, Mean Diff, untreated vs. therapeutic (d7) ([1]; Row 3 (day 7)): 0.4333 | Temperature, Mean Diff, untreated vs. prophylactic ([1]; Row 4 (day 10)): 0.5333 | Temperature, Mean Diff, untreated vs. therapeutic (d3) ([1]; Row 4 (day 10)): 0.3667 | Temperature, Mean Diff, untreated vs. therapeutic (d7) ([1]; Row 4 (day 10)): 0.5 | Temperature, Mean Diff, untreated vs. prophylactic ([1]; Row 5 (day 14)): -0.25 | Temperature, Mean Diff, untreated vs. therapeutic (d3) ([1]; Row 5 (day 14)): 0.4 | Temperature, Mean Diff, untreated vs. therapeutic (d7) ([1]; Row 5 (day 14)): 0.3 | Temperature, Mean Diff, untreated vs. prophylactic ([1]; Row 6 (day 17)): 0.1667 | Temperature, Mean Diff, untreated vs. therapeutic (d3) ([1]; Row 6 (day 17)): 0.24 | Temperature, Mean Diff, untreated vs. therapeutic (d7) ([1]; Row 6 (day 17)): 0.2333 | Temperature, Mean Diff, untreated vs. prophylactic ([1]; Row 7 (day 21)): -0.3167 | Temperature, Mean Diff, untreated vs. therapeutic (d3) ([1]; Row 7 (day 21)): -0.1 | Temperature, Mean Diff, untreated vs. therapeutic (d7) ([1]; Row 7 (day 21)): -0.1167 | Temperature ([1]; prophylactic group, day 0): 38.9 °C and 38.6 °C and 38.7 °C (2×) and 39.3 °C and 38.2 °C | Temperature ([1]; prophylactic group, day 3): 38.6 °C and 38.5 °C and 39.1 °C and 39 °C and 37.5 °C and 38.8 °C | Temperature ([1]; prophylactic group, day 7): 39.3 °C (2×) and 38.5 °C and 38.7 °C and 38.8 °C and 37.3 °C | Temperature ([1]; prophylactic group, day 10): 39.8 °C and 39.3 °C (2×) and 38.9 °C and 38.3 °C and 39.7 °C | Temperature ([1]; prophylactic group, day 14): 40.1 °C and 40.5 °C (2×) and 39.6 °C (2×) and 39.1 °C | Temperature ([1]; prophylactic group, day 17): 39.7 °C (2×) and 39.8 °C and 39.3 °C and 38.7 °C and 40 °C | Temperature ([1]; prophylactic group, day 21): 39.5 °C (2×) and 39.7 °C (2×) and 39.1 °C and 39.6 °C | Temperature, group mean (Mean 2) ([1]; prophylactic, Row 1 (day 0)): 38.73 | Temperature, group mean (Mean 2) ([1]; prophylactic, Row 2 (day 3)): 38.58 | Temperature, group mean (Mean 2) ([1]; prophylactic, Row 3 (day 7)): 38.65 | Temperature, group mean (Mean 2) ([1]; prophylactic, Row 4 (day 10)): 39.22 | Temperature, group mean (Mean 2) ([1]; prophylactic, Row 5 (day 14)): 39.9 | Temperature, group mean (Mean 2) ([1]; prophylactic, Row 6 (day 17)): 39.53 | Temperature, group mean (Mean 2) ([1]; prophylactic, Row 7 (day 21)): 39.52 | mean temperatures in the distinct groups ([1]; remained within the pre-infection range, all groups): less than 40 °C | Temperature ([1]; therapeutic (d3) group, day 0): 37.9 °C and 38.1 °C and 37.8 °C and 39.1 °C and 38.4 °C and 38.8 °C | Temperature ([1]; therapeutic (d3) group, day 3): 39.3 °C and 38.3 °C and 39.2 °C and 40 °C and 39.4 °C and 39.1 °C | Temperature ([1]; therapeutic (d3) group, day 7): 38.9 °C and 38.7 °C and 39.4 °C (2×) and 39.8 °C (2×) | Temperature ([1]; therapeutic (d3) group, day 10): 38.4 °C and 39 °C and 39.3 °C and 39.6 °C and 39.7 °C and 40.3 °C | Temperature ([1]; therapeutic (d3) group, day 14): 39.1 °C (2×) and 38.7 °C and 39.5 °C (2×) and 39.6 °C | Temperature ([1]; therapeutic (d3) group, day 17): 39.1 °C and 39.5 °C (2×) and 39.8 °C and 39.4 °C | Temperature ([1]; therapeutic (d3) group, day 21): 39.1 °C and 38.8 °C (2×) and 39.8 °C and 40 °C | Temperature, group mean (Mean 2) ([1]; therapeutic (d3), Row 1 (day 0)): 38.35 | Temperature, group mean (Mean 2) ([1]; therapeutic (d3), Row 2 (day 3)): 39.22 | Temperature, group mean (Mean 2) ([1]; therapeutic (d3), Row 3 (day 7)): 39.33 | Temperature, group mean (Mean 2) ([1]; therapeutic (d3), Row 4 (day 10)): 39.38 | Temperature, group mean (Mean 2) ([1]; therapeutic (d3), Row 5 (day 14)): 39.25 | Temperature, group mean (Mean 2) ([1]; therapeutic (d3), Row 6 (day 17), N = 5): 39.46 | Temperature, group mean (Mean 2) ([1]; therapeutic (d3), Row 7 (day 21), N = 5): 39.3 | Temperature ([1]; therapeutic (d7) group, day 0): 38.4 °C and 38.3 °C and 38 °C and 37.9 °C (2×) and 38.1 °C | Temperature ([1]; therapeutic (d7) group, day 3): 39.3 °C (2×) and 39.4 °C (2×) and 38.6 °C and 39.2 °C | Temperature ([1]; therapeutic (d7) group, day 7): 40 °C (2×) and 39.2 °C (2×) and 38.7 °C and 39.4 °C | Temperature, group mean (Mean 2) ([1]; therapeutic (d7), Row 1 (day 0)): 38.1 | Temperature, group mean (Mean 2) ([1]; therapeutic (d7), Row 2 (day 3)): 39.2 | Temperature, group mean (Mean 2) ([1]; therapeutic (d7), Row 3 (day 7)): 39.42 | Temperature, group mean (Mean 2) ([1]; therapeutic (d7), Row 4 (day 10)): 39.25 | Temperature, group mean (Mean 2) ([1]; therapeutic (d7), Row 5 (day 14)): 39.35 | Temperature, group mean (Mean 2) ([1]; therapeutic (d7), Row 6 (day 17)): 39.47 | Temperature, group mean (Mean 2) ([1]; therapeutic (d7), Row 7 (day 21)): 39.32 | histological signs of pharmacotoxicity ([2]; all monkeys, day 21, 50 mg/kg b.i.d. 14 days): No histological signs of pharmacotoxicity were detected | liver histology of the deceased animal versus untreated control ([2]; day 3 therapeutic group animal deceased day 15): no pathological alternations | reduction in progeny virus titer ([3]; continuous exposure of MeV-infected hPBMCs to 1.5 µM, 48 h): greater than three orders of magnitude reduction | Virus titers ([3]; 48 h, b.i.d. 50 mg/kg simulated profile): 1.80E+02 TCID50/10^6 PBMCs and 3.21E+02 TCID50/10^6 PBMCs and 4.27E+02 TCID50/10^6 PBMCs and 7.60E+01 TCID50/10^6 PBMCs | Virus titers ([3]; 48 h, constant 1.5 μM): 7.60E+01 TCID50/10^6 PBMCs and 5.70E+01 TCID50/10^6 PBMCs and 4.27E+01 TCID50/10^6 PBMCs | Virus titers ([3]; 48 h, q.d. 50 mg/kg simulated profile): 1.80E+03 TCID50/10^6 PBMCs and 2.40E+03 TCID50/10^6 PBMCs and 3.21E+03 TCID50/10^6 PBMCs and 1.35E+03 TCID50/10^6 PBMCs | Mean, Transform of Virus Titer ([3]; once daily recapitulation): 3.318 | Mean Diff., Transform of Virus Titer ([3]; once daily vs. trough): 1.531 | Mean Diff., Transform of Virus Titer ([3]; once daily vs. twice daily): 0.9998 | Mean Diff., Transform of Virus Titer ([3]; once daily vs. vehicle): -1.854 | progeny MeV titers versus untreated controls ([3]; q.d. and b.i.d. regimen recapitulated ex vivo in hPBMCs, 48 h): significantly (p < 0.0001) lower than in untreated controls | Mean, Transform of Virus Titer ([3]; trough (constant 1.5 µM)): 1.787 | Mean Diff., Transform of Virus Titer ([3]; trough vs. vehicle): -3.385 | Mean, Transform of Virus Titer ([3]; twice daily recapitulation): 2.318 | Mean Diff., Transform of Virus Titer ([3]; twice daily vs. trough): 0.5313 | Mean Diff., Transform of Virus Titer ([3]; twice daily vs. vehicle): -2.853 | survival after post-exposure therapeutic dosing [4]: complete survival of all treated animals
